From ChEMBL document CHEMBL1136842, “5-Nitrofuran-2-yl derivatives: synthesis and inhibitory activities against growing and dormant mycobacterium species” (Bioorg Med Chem Lett, 2009)
Converted amounts (≈) assume the structure as drawn.

How the values were obtained:
Mycobacterium kansasii = experiment: Antimycobacterial activity against Mycobacterium kansasii MTCC 3058 by agar dilution method; type: functional
[1] = Ratio of IC50 for african green monkey Vero cells to MIC for Mycobacterium tuberculosis H37Rv; type: functional
[2] = tested on: Mycobacterium tuberculosis; experiment: Antimycobacterial activity against 6-week-starved culture of Mycobacterium tuberculosis H37Rv by agar dilution method; type: functional
[3] = tested on: Mycolicibacterium smegmatis; experiment: Antimycobacterial activity against log-phase culture of Mycobacterium smegmatis ATCC 14468 by agar dilution method; type: functional
[4] = tested on: Mycolicibacterium smegmatis; experiment: Antimycobacterial activity against Mycobacterium smegmatis ATCC 14468 by agar dilution method; type: functional
Mycolicibacterium phlei = experiment: Antimycobacterial activity against Mycobacterium phlei MTCC 1724 by agar dilution method; type: functional
[5] = tested on: Mycolicibacterium fortuitum; experiment: Antimycobacterial activity against Mycobacterium fortuitum MTCC 951 by agar dilution method; type: functional
[6] = tested on: Mycobacterium tuberculosis; experiment: Antimycobacterial activity against log-phase culture of Mycobacterium tuberculosis H37Rv by agar dilution method; type: functional
[7] = tested on: Mycobacterium tuberculosis; experiment: Antimycobacterial activity against Mycobacterium tuberculosis H37Rv by agar dilution method; type: functional
Vero = experiment: Cytotoxicity against african green monkey Vero cells after 72 hrs by MTT assay; type: cell-based; conditions: Chlorocebus sabaeus
Mycolicibacterium vaccae = experiment: Antimycobacterial activity against Mycobacterium vaccae MTCC 997 by agar dilution method; type: functional
[8] = tested on: Mycolicibacterium smegmatis; experiment: Antimycobacterial activity against 6-week-starved culture of Mycobacterium smegmatis ATCC 14468 by agar dilution method; type: functional

Row | SMILES | MIC (Mycobacterium kansasii) [µM] | Ratio [1] | MIC [2] [µM] | MIC [3] [µM] | MIC [4] [µM] | MIC (Mycolicibacterium phlei) [µM] | MIC [5] [µM] | MIC [6] [µM] | MIC [7] [µM] | IC50 (Vero) [µM] | MIC (Mycolicibacterium vaccae) [µM] | MIC [8] [µM]
1 | O=[N+]([O-])c1ccc(/C=N/NC(=S)Nc2ncc(Br)cc2Br)o1 | 1.7 (≈ 0.763 µg/mL) | 632.2 | 13.9 (≈ 6.24 µg/mL) | 6.9 (≈ 3.1 µg/mL) | 6.9 (≈ 3.1 µg/mL) | 6.9 (≈ 3.1 µg/mL) | 3.4 (≈ 1.53 µg/mL) | 0.22 (≈ 0.0988 µg/mL) | 0.22 (≈ 0.0988 µg/mL) | 139 | 3.4 (≈ 1.53 µg/mL) | 124 (≈ 55.8 µg/mL)
2 | O=[N+]([O-])c1ccc(/C=N/NC(=S)Nc2ccc(Cl)cc2)o1 | 38.4 (≈ 12.5 µg/mL) |  |  | 19.1 (≈ 6.2 µg/mL) | 19.1 (≈ 6.2 µg/mL) | 9.6 (≈ 3.12 µg/mL) | 38.4 (≈ 12.5 µg/mL) |  | 1.23 (≈ 0.399 µg/mL) | > 192 | 9.6 (≈ 3.12 µg/mL) | 134 (≈ 43.4 µg/mL)
3 | Cc1cccnc1NC(=S)N/N=C/c1ccc([N+](=O)[O-])o1 | 5.1 (≈ 1.56 µg/mL) |  |  |  | 20.5 (≈ 6.26 µg/mL) | 10.2 (≈ 3.11 µg/mL) | 10.2 (≈ 3.11 µg/mL) |  | 5.1 (≈ 1.56 µg/mL) | < 205 | 20.5 (≈ 6.26 µg/mL) | 
4 | CCc1cccc(CC)c1NC(=S)N/N=C/c1ccc([N+](=O)[O-])o1 | 36 (≈ 12.5 µg/mL) |  | 36 (≈ 12.5 µg/mL) |  | 36 (≈ 12.5 µg/mL) | 36 (≈ 12.5 µg/mL) | 72.1 (≈ 25 µg/mL) | 1.2 (≈ 0.416 µg/mL) | 1.1 (≈ 0.381 µg/mL) | > 180 | 72.1 (≈ 25 µg/mL) | 
5 | O=[N+]([O-])c1ccc(/C=N/NC(=S)Nc2ccccc2)o1 | 5.3 (≈ 1.54 µg/mL) |  |  |  | 172 (≈ 50 µg/mL) | 10.7 (≈ 3.11 µg/mL) | 43 (≈ 12.5 µg/mL) |  | 10.7 (≈ 3.11 µg/mL) | > 215 | 43 (≈ 12.5 µg/mL) | 
6 | Cc1ccnc(NC(=S)N/N=C/c2ccc([N+](=O)[O-])o2)c1 | 5.1 (≈ 1.56 µg/mL) |  |  |  | 20.5 (≈ 6.26 µg/mL) | 5.1 (≈ 1.56 µg/mL) | 5.1 (≈ 1.56 µg/mL) |  | 2.6 (≈ 0.794 µg/mL) | < 205 | 2.6 (≈ 0.794 µg/mL) | 
7 | Cc1ccc(NC(=S)N/N=C/c2ccc([N+](=O)[O-])o2)cc1 | 20.5 (≈ 6.24 µg/mL) |  |  |  | 41 (≈ 12.5 µg/mL) | 2.5 (≈ 0.761 µg/mL) | 41 (≈ 12.5 µg/mL) |  | 5.1 (≈ 1.55 µg/mL) | > 205 | 41 (≈ 12.5 µg/mL) | 
8 | O=[N+]([O-])c1ccc(/C=N/NC(=S)Nc2ccccc2Br)o1 | 8.4 (≈ 3.1 µg/mL) |  | 33.8 (≈ 12.5 µg/mL) |  | 33.8 (≈ 12.5 µg/mL) | 16.9 (≈ 6.24 µg/mL) | 33.8 (≈ 12.5 µg/mL) | 0.54 (≈ 0.199 µg/mL) | 0.54 (≈ 0.199 µg/mL) | > 169 | 16.9 (≈ 6.24 µg/mL) | 
9 | Cc1ccc(NC(=S)N/N=C/c2ccc([N+](=O)[O-])o2)c(C)c1 | 9.8 (≈ 3.12 µg/mL) |  |  |  | 314 (≈ 100 µg/mL) | 4.9 (≈ 1.56 µg/mL) | 39.2 (≈ 12.5 µg/mL) |  | 2.45 (≈ 0.78 µg/mL) | > 196 | 39.2 (≈ 12.5 µg/mL) | 
10 | Cc1cccc(C)c1NC(=S)N/N=C/c1ccc([N+](=O)[O-])o1 | 39.2 (≈ 12.5 µg/mL) |  |  |  | 39.2 (≈ 12.5 µg/mL) | 9.8 (≈ 3.12 µg/mL) | 39.2 (≈ 12.5 µg/mL) |  | 4.9 (≈ 1.56 µg/mL) | > 196 | 39.2 (≈ 12.5 µg/mL) | 
